Converted amounts (≈) assume the structure as drawn. Residues, ends and D or L forms follow the SMILES beside them.
How the values were obtained:
[1] = system: Enterococcus faecium ATCC 19434; test: Modified MBC determination; assay type: cell-based; conditions: Table 2
Procedure: (§1) The minimum bactericidal concentration (MBC) was determined as previously described with minor modifications. Briefly, bacteria were cultured in the mid-log phase and diluted to 5 × 10^5 colony-forming unit (CFU)/mL in 10 mM sodium phosphate buffer (pH 7.4) with a 1% volume of TS broth. They were incubated for 1 h with various peptides which were two-fold diluted serially from 64 μg/mL to 0 μg/mL concentrations in a 96-well plate. The samples were inoculated TS agar plate and incubated overnight at 37 °C. The value of MBC was determined at the lowest concentrations at which no colonies were identified.
(§2) We used the CFU counting method to measure antibacterial activity, with all bacteria cultured to the mid-log phase in an appropriate broth medium. Bacterial CFUs were counted after overnight culture at 37 °C on TS or LB agar plates. The MBC value and antibacterial activity in blood components were determined as previously described. Mouse and human whole blood were collected and diluted with PBS (pH 7.4) to measure the ex vivo antibacterial activity of AMPR-22. For that test, AMPR-22 (10 μg) was added to each whole blood solution and incubated at 37 °C with shaking at 200 rpm. At each time point, it was incubated with bacteria (1 × 10^3 CFU) for 30 min. Each sample was inoculated on an LB agar plate, and CFU counting was performed. To measure the in vivo activity of AMPR-22, 1 × 10^8 CFU of bacteria were injected into BALB/c mice, and an hour later, 10 mg/kg of the test peptides were injected. Blood samples were collected by tail cut, serially diluted with PBS (pH 7.4), and inoculated on LB-agar plates, followed by CFU counting. To estimate the functional half-life of AMPR-22, 40 mg/kg of each tested peptide were injected into mice. Whole blood sampling was performed by cardiac puncture, and the plasma was isolated by centrifugation (2000× g, 15 min). The isolated plasma was incubated with bacteria (1 × 10^3 CFU) for an hour, and then the CFU counting method was performed.

[2] = system: Enterococcus faecalis ATCC 19433; test: Modified MBC determination; assay type: cell-based; conditions: Table 2
Procedure: as §1, §2

[3] = system: Enterobacter aerogenes ATCC 13048; test: Modified MBC determination; assay type: cell-based; conditions: Table 2
Procedure: as §1, §2

[4] = system: Klebsiella pneumoniae ATCC 13883; test: Modified MBC determination; assay type: cell-based; conditions: Table 2
Procedure: as §1, §2

[5] = system: Bacillus subtilis ATCC 6633; test: Modified MBC determination; assay type: cell-based; conditions: Table 2
Procedure: as §1, §2

[6] = system: Escherichia coli ATCC 25922; test: Modified MBC determination; assay type: cell-based; conditions: Table 2
Procedure: as §1, §2

[7] = system: Acinetobacter baumannii ATCC 19606; test: Modified MBC determination; assay type: cell-based; conditions: Table 2
Procedure: as §1, §2

[8] = system: Streptomyces sindenensis ATCC 23963; test: Modified MBC determination; assay type: cell-based; conditions: Table 2
Procedure: as §1, §2

[9] = system: Vancomycin-resistant E. faecium NCCP 11522; assay type: cell-based, Enterococcus faecium; conditions: Vancomycin-resistant NCCP 11522, 1 h
Procedure: as §1
We used the CFU counting method to measure antibacterial activity, with all bacteria cultured to the mid-log phase in an appropriate broth medium. Bacterial CFUs were counted after overnight culture at 37 °C on TS or LB agar plates. The MBC value and antibacterial activity in blood components were determined as previously described. Mouse and human whole blood were collected and diluted with PBS (pH 7.4) to measure the ex vivo antibacterial activity of AMPR-22. For that test, AMPR-22 (10 μg) was added to each whole blood solution and incubated at 37 °C with shaking at 200 rpm. At each time point, it was incubated with bacteria (1 × 10^3 CFU) for 30 min. Each sample was inoculated on an LB agar plate, and CFU counting was performed. […]

mouse erythrocytes = test: Hemolysis assay; assay type: cell-based; conditions: 2% erythrocytes in PBS, 1 h 37 °C, absorbance 550 nm; concentrations up to 256 µg/mL
Procedure: (§3) For the hemolytic assay, mouse and human whole blood was diluted with PBS (pH 7.4) and centrifuged for 10 min at 500× g. After removing the supernatant and rinsing the pellet three times with PBS, we resuspended the erythrocytes in PBS at 2% volume. The blood solution was added to the solution of peptides with two-fold serial dilution on a 96-well plate. After incubation for an hour at 37 °C, the plate was centrifuged at 2500× g for 10 min, and the absorbance of the supernatant was measured at 550 nm. The PBS-treated sample was the negative control, and the 0.1% Triton X-100–treated sample was the positive control. To measure white blood cell toxicity, mouse and human PBMCs were freshly isolated as previously described, and 70% ethanol (positive control) or AMPR-22 was administered using two-fold diluted concentrations (0 to 256 μg/mL) for 30 min. To measure cell death, a LIVE/DEAD® fixable green dead cell stain kit (Thermo Fisher Scientific, Waltham, MS, USA) was used following the manufacturer′s instructions, and flow cytometry was performed using a FACS Canto II (BD Biosciences, CA, USA). The toxicity of AMPR-22 was compared with negative (PBS-treated) and positive controls, and the data were analyzed using FlowJo software (Tree Star, OR, USA).

human erythrocytes = test: Hemolysis assay; assay type: cell-based; conditions: 2% erythrocytes in PBS, 1 h 37 °C, absorbance 550 nm; up to / at 256 µg/mL
Procedure: as §3

SMILES: CC[C@H](C)[C@H](NC(=O)CNC(=O)CNC(=O)[C@@H](NC(=O)[C@H](C)NC(=O)[C@H](CCSC)NC(=O)[C@H](Cc1ccccc1)NC(=O)[C@@H](NC(=O)CNC(=O)[C@H](Cc1ccccc1)NC(=O)[C@H](CCCCN)NC(=O)CNC(=O)CNC(=O)[C@H](CCCCN)NC(=O)[C@H](CCCCN)NC(=O)[C@H](CCSC)NC(=O)[C@H](CCSC)NC(=O)[C@H](CCCCN)NC(=O)[C@@H](N)CCCCN)[C@@H](C)O)[C@@H](C)CC)C(=O)N[C@@H](CCCNC(=N)N)C(=O)O [AMPR-22] (H-KKMMKKGGKFGTFMAIGGIR-OH)
- MBC Value, Enterococcus faecium [1]: 4 µg/mL (≈ 1.83 µM)
- MBC Value, Enterococcus faecalis [2]: 4 µg/mL (≈ 1.83 µM)
- MBC Value, Enterobacter aerogenes [3]: 2 µg/mL (≈ 0.915 µM)
- MBC Value, Klebsiella pneumoniae [4]: 1 µg/mL (≈ 0.457 µM)
- MBC Value, Bacillus subtilis [5]: 1 µg/mL (≈ 0.457 µM)
- MBC Value, Escherichia coli [6]: 1 µg/mL (≈ 0.457 µM)
- MBC Value, Acinetobacter baumannii [7]: 1 µg/mL (≈ 0.457 µM)
- MBC Value, Streptomyces sindenensis [8]: 2 µg/mL (≈ 0.915 µM)
- MBC Value, Vancomycin-resistant E. faecium [9]: 4 µg/mL (≈ 1.83 µM)
- Hemolytic activity against mouse erythrocytes (mouse erythrocytes): relatively endurable hemolysis properties
- Hemolytic activity against human erythrocytes (human erythrocytes): negligible hemolytic activity
